From PMC4867306 (European journal of medicinal chemistry, 2016)
Entries after “also recorded” stand apart in the source; their conditions may differ. Like-named read-outs stand apart in the source and are kept apart here.

What was measured:
[1] = target: T1, LAP (M17 leucine aminopeptidase) (Sus scrofa, UniProt P28839); assay: Inhibition of porcine kidney leucine aminopeptidase; type: biochemical
T1 sequence (P28839 33-519 limits assumed): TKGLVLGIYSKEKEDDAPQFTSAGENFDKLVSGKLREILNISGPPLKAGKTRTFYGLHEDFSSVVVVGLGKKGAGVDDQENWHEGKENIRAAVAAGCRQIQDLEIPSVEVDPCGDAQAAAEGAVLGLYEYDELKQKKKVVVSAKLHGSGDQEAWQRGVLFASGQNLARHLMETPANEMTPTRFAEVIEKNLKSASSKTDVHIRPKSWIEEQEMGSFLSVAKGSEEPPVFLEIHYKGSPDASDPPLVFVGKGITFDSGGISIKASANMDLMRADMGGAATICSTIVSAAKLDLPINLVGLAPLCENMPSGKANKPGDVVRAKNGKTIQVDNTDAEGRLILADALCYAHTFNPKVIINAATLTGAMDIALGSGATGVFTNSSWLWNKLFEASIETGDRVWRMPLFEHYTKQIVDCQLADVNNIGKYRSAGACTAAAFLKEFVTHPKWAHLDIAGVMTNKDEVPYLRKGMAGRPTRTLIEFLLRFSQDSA

[2] = target: T2, NmAPN (M1 alanine aminopeptidase from Neisseria meningitidis) (Neisseria meningitidis, UniProt Q9JYV4); settings: read-out: Ki NmAPN; cited from earlier work
T2 sequence (Q9JYV4 1-867): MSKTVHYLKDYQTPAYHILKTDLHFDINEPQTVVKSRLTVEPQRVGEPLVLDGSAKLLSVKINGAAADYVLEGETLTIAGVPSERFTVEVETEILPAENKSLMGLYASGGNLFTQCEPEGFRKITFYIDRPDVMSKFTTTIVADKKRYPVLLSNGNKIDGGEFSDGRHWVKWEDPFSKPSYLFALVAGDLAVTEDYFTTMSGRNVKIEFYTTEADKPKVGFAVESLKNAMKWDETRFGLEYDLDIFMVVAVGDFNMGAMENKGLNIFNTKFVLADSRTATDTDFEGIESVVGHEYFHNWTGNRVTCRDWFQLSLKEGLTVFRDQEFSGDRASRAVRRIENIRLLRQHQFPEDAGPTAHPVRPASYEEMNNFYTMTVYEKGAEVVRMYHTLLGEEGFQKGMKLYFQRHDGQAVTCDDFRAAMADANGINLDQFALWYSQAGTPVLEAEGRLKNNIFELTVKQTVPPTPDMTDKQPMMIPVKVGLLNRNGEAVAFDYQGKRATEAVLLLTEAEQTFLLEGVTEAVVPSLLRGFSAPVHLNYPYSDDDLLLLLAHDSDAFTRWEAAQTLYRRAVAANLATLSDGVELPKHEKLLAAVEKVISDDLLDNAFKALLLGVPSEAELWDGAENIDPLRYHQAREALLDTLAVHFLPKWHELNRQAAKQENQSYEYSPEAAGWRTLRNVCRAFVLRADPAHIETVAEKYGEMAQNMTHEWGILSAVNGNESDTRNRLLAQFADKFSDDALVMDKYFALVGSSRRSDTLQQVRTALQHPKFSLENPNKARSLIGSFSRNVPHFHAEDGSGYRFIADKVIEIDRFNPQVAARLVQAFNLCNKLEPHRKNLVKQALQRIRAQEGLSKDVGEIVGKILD

[3] = target: T2, NmAPN (M1 alanine aminopeptidase from Neisseria meningitidis)
[4] = target: T1, LAP (M17 leucine aminopeptidase); settings: originally measured activity; NI = no inhibition up to 0.8 mM inhibitor concentration; cited from earlier work

Structure (SMILES): NC(CN1CCOCC1)P(=O)(O)O (centres unmarked) [1w]
- Ki ([1]; read-out: Ki LAP, NI = no inhibition up to 0.8 mM inhibitor concentration): > 800000 nM

Structure (SMILES): NC(CCc1ccccc1)P(=O)(O)CC(Cc1ccccc1)C(=O)O (centres unmarked) [phosphinic analogue of hPhePhe]
- Ki [2]: 302 nM

Structure (SMILES): COc1ccc(CNCC(N)P(=O)(O)O)cc1 (centres unmarked) [1s]
- improvement of affinity compared with non-modified analogue 1n [3]: 3-to-4 fold

Structure (SMILES): NC(CNCC1CCCO1)P(=O)(O)O (centres unmarked) [1k]
- Ki [1]: 2500 to 7000 nM

Structure (SMILES): Nc1ccc(CNCC(N)P(=O)(O)O)cc1 (centres unmarked) [1r]
- improvement of affinity compared with non-modified analogue 1n [3]: 3-to-4 fold

Structure (SMILES): CCCNCC(N)P(=O)(O)O (centres unmarked) [1c]
- Ki LAP [4]: inactive; also recorded: do not inhibit LAP at all

Structure (SMILES): CC(C)CNCC(N)P(=O)(O)O (centres unmarked) [1d]
- Ki LAP [4]: inactive; also recorded: do not inhibit LAP at all

Structure (SMILES): NC(CNC1CCCCC1)P(=O)(O)O (centres unmarked) [1h, N-cyclohexyl-1,2-diaminoethylphosphonic acid]
- Ki LAP [4]: does not influence the LAP activity at all; also recorded: inactive; also recorded: do not inhibit LAP at all
